Results reported in patent publication US20060035892A1, “Nitrosated imidazopyridines” (Atlanta Pharma AG, priority 2002, published 2006).

System: acid secretion stimulated by pentagastrin of the perfused rat stomach
Assay: Secretion-inhibiting action on the perfused rat stomach (pentagastrin-stimulated acid secretion in vivo)
Settings: anesthetized female CD rats, pentagastrin 1 μg/kg i.v. stimulation, dose 1 μmol/kg i.d.
Text: Testing of the Secretion-Inhibiting Action on the Perfused Rat Stomach
In Table A below, the influence of the compounds according to the invention after […] administration is shown on the acid secretion stimulated by pentagastrin of the perfused rat stomach in vivo.
The abdomen of anesthetized rats (CD rats, female, 200-250 g; 1.5 g/kg i.m. urethane) was opened after tracheotomy by means of a median upper abdominal incision and a PVC catheter was fixed transorally in the esophagus and a further catheter via the pylonus such that the ends of the tubing just projected into the gastric lumen. The catheter leading from the pylorus led outwards through a side opening in the right abdominal wall.
After thorough rinsing (about 50-100 ml), warm physiological NaCl solution at 37° C. was continuously passed through the stomach (0.5 ml/min, pH 6.8-6.9; Braun-Unita I). The pH (pH meter 632, glass electrode EA 147; φ=5 mm, Metrohm), and, by titration with a freshly prepared 0.01N NaOH solution to pH 7 (Dosimat 665 Metrohm), the secreted HCl were determined in the effluent in each case collected at an interval of 15 minutes.
The gastric secretion was stimulated by continuous perfusion of 1 μg/kg (=1.65 ml/h) of i.v. pentagastrin (left femoral vein) about 30 min after the end of the operation (i.e. after determination of 2 preliminary fractions). The substances to be tested were administered Intraduodenally in 2,5 ml/kg of liquid volume 60 min after the start of the pentagastrin continuous infusion.
The body temperature of the animals was kept at a constant 37.8-38° C. by infrared irradiation and heat pads (automatic, stepless control by means of rectal temperature sensors).

SMILES | Inhibition of acid secretion
COCCO[C@@H]1c2ccn3c(C)c(C)nc3c2O[C@H](c2ccccc2)[C@@H]1OC(=O)CCCCO[N+](=O)[O-] [Example 3, (7R,8R,9R)-2,3-Dimethyl-7-(2-methoxyethoxy)-9-phenyl-8-(5-nitro-oxy-valeryloxy)-7H-8,9-dihydro-pyrano[2,3-c]imdazo[1,2-a]pyridine] | 100%
CCC(CCCOC(=O)O[C@@H]1[C@@H](c2ccccc2)Nc2c(ccn3c(C)c(C)nc23)[C@H]1OCCOC)O[N+](=O)[O-] (stereo partly shown) [Example 4] | 100%
COCCO[C@@H]1c2ccn3c(C)c(C)nc3c2N[C@H](c2ccccc2)[C@H]1OC(=O)CCCCO[N+](=O)[O-] [Example 1] | 100%
COCCO[C@@H]1c2ccn3c(C)c(C)nc3c2N[C@H](c2ccccc2)[C@H]1OC(=O)CCCO[N+](=O)[O-] [Example 2] | 100%
